Measured values reported in PubChem BioAssay (NCI).
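Assay format: 96-well plates, 48-hour exposure. At the GI50, growth is halved. TGI: total growth inhibition.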

Tests used:
Experiment in all cases: NCI-60 cell line screen, 48 h
SK-MEL-5 melanoma = test system: SK-MEL-5 melanoma
M14 melanoma = test system: M14 melanoma
SF-539 CNS = test system: SF-539 CNS
SK-MEL-2 melanoma = test system: SK-MEL-2 melanoma
SK-MEL-28 melanoma = test system: SK-MEL-28 melanoma
NCI-H522 lung = test system: NCI-H522 lung
SW-620 colon = test system: SW-620 colon
SNB-75 CNS = test system: SNB-75 CNS
U251 CNS = test system: U251 CNS
OVCAR-4 ovarian = test system: OVCAR-4 ovarian

Row | SMILES | TGI (SK-MEL-5 melanoma) [µM] | TGI (M14 melanoma) [µM] | TGI (SF-539 CNS) [µM] | TGI (SK-MEL-2 melanoma) [µM] | TGI (SK-MEL-28 melanoma) [µM] | TGI (NCI-H522 lung) [µM] | TGI (SW-620 colon) [µM] | TGI (SNB-75 CNS) [µM] | TGI (U251 CNS) [µM] | TGI (OVCAR-4 ovarian) [µM] | GI50 (SK-MEL-5 melanoma) [µM] | GI50 (M14 melanoma) [µM] | GI50 (SF-539 CNS) [µM] | GI50 (SK-MEL-2 melanoma) [µM] | GI50 (SK-MEL-28 melanoma) [µM] | GI50 (SW-620 colon) [µM] | GI50 (SNB-75 CNS) [µM] | GI50 (U251 CNS) [µM] | GI50 (OVCAR-4 ovarian) [µM] | GI50 (NCI-H522 lung) [µM]
1 | CON(C)c1nc(N)c(C#N)c(C#N)c1C#N | > 10 | > 10 | > 10 | > 10 | > 10 | > 10 | > 10 | > 10 | > 10 | > 10 | – | – | – | – | – | – | – | – | – | –
2 | C=C1CC[C@@]2(C)[C@@H]([C@@H]1C)[C@H]1CC[C@@H]3[C@@]4(C)CC[C@H](O)C(C)(C)[C@@H]4CC[C@@]3(C)[C@]1(C)C[C@@H]2O | > 50.3 | 32.7 | 6.29 | 12.7 | 20.3 | 4.52 | > 100 | – | – | 6.53 | – | – | – | – | – | – | – | – | – | –
3 | C=C1C(=O)OC2C1CCC(=C)C1CC(O)C(=C)C12 (stereo not given) | 30.6 | 41 | 35.2 | 32.7 | 32 | 6.39 | 43.6 | 37.3 | 50.3 | 33.7 | – | – | – | – | – | – | – | – | – | –
4 | Cc1cc(OCc2nc(N)nc(N)c2-c2ccc(Cl)c(Cl)c2)ccc1[N+](=O)[O-] | 15 | 10.7 | 22.5 | 15.1 | 40.8 | 10.6 | > 63.6 | 13.7 | 12.3 | 39.1 | – | – | – | – | – | – | – | – | – | –
5 | O=C([CH-]C(=O)c1ccccc1)c1ccccc1.[C-]#[O+].[C-]#[O+].[Ir] | > 100 | > 100 | > 100 | > 100 | > 100 | – | > 100 | > 100 | > 100 | > 100 | 39.3 | 54.3 | 99.4 | > 100 | 87 | 59.4 | 45.6 | 36.4 | > 100 | –
6 | O=C(O)c1cc2ccccc2c(Cc2c(O)c(C(=O)O)cc3ccccc23)c1O | > 100 | > 100 | – | > 100 | > 100 | > 100 | > 100 | – | > 100 | > 100 | – | – | – | – | – | – | – | – | – | –
7 | COc1ccc(CN(CCN(C)C)c2ccccn2)cc1 (tested in a mixture with another compound) | > 100 | > 100 | > 100 | > 100 | > 100 | > 100 | > 100 | > 100 | > 100 | – | – | – | – | – | – | – | – | – | – | –
8 | Cc1cc(N(CCC#N)S(=O)(=O)c2ccccc2)ccc1C=Nc1cccc(C(=O)O)c1 | > 100 | > 100 | > 100 | > 100 | > 100 | > 100 | > 100 | > 100 | > 100 | > 100 | – | – | – | – | – | – | – | – | – | –
9 | COc1cccc(N/C(C)=C2/CCOC2=O)c1 | > 10 | > 10 | > 10 | > 10 | > 10 | > 10 | > 10 | > 10 | > 10 | > 10 | – | – | – | – | – | – | – | – | – | –
10 | Oc1cc(O)c2c(c1)O[C@H](c1ccc(O)c(O)c1)[C@@H](O)C2 | > 100 | > 100 | > 100 | > 100 | > 100 | > 100 | > 100 | > 100 | > 100 | > 100 | – | – | – | – | – | – | – | – | – | –
11 | CC1(CO)C(O)CCC2(C)C1CCC1CC3CC12CCC3(O)CO (stereo not given) | > 100 | – | > 44.5 | > 100 | > 100 | > 100 | > 100 | > 100 | > 100 | > 100 | – | – | – | – | – | – | – | – | – | –
12 | O=C(Nc1ccccc1)c1cc2ccccc2c(N=Nc2cccc([N+](=O)[O-])c2)c1O | > 100 | > 100 | > 100 | > 100 | > 100 | > 100 | > 100 | > 100 | > 100 | > 100 | – | – | – | – | – | – | – | – | – | –
13 | C[C@@H]1C[C@H]2OC(=O)[C@@]3(C)CCC[C@@](C)([C@@H]23)[C@@]1(O)CCc1ccoc1 | > 100 | > 100 | > 100 | > 100 | > 100 | > 100 | > 100 | > 100 | > 100 | > 100 | – | – | – | – | – | – | – | – | – | –
14 | C1=N[C@]23C(=N[C@H](N=C2NCc2ccco2)[C@]24N=CNC2=N[C@H]3N=C4NCc2ccco2)N1 | > 100 | > 100 | > 100 | > 100 | > 100 | > 100 | > 100 | > 100 | > 100 | > 100 | > 100 | > 100 | > 100 | > 100 | > 100 | > 100 | 67.1 | > 100 | 65 | > 100
15 | Cc1c(C)c2c(c(C)c1OC(=O)CCC(=O)[O-])CCC(C)(CCCCCCCCCCC[P+](c1ccccc1)(c1ccccc1)c1ccccc1)O2 (stereo not given) | 0.182 | – | 0.721 | – | 0.829 | 1.51 | 0.842 | 0.49 | – | 0.891 | 0.0904 | – | 0.185 | – | 0.241 | 0.174 | 0.123 | – | 0.158 | 0.153
16 | O=C(NN1C(=O)C(Cl)C1c1cccc(O)c1)c1ccccc1O (stereo not given) | > 100 | > 100 | > 100 | > 100 | > 100 | > 100 | – | > 100 | > 100 | > 100 | – | – | – | – | – | – | – | – | – | –
